Source: BindingDB's records for doi:10.1016/j.ejmech.2021.113556 (Zhejiang University, 2021)

Tests used:
[1] = target: Proteasome subunit beta type-6 (Homo sapiens) (UniProt P28072); experiment: Inhibition of caspase-like activity of human proteasome beta-1c subunit using SUC-LLE-AMC as flurogenic substrate preincubated for 15 mins followed by substrate addition and measured after 1 hr by fluorescence assay
[2] = target: Proteasome subunit beta type-7 (Homo sapiens) (UniProt Q99436); experiment: Inhibition of human trypsin-like activity of 20s proteasome beta 2c subunit using SUC-KQL-AMC as flurogenic substrate preincubated for 15 mins followed by substrate addition and measured after 1 hr by fluorescence assay
Sequence of Proteasome subunit beta type-7 (Homo sapiens) (Q99436 whole entry, looked up): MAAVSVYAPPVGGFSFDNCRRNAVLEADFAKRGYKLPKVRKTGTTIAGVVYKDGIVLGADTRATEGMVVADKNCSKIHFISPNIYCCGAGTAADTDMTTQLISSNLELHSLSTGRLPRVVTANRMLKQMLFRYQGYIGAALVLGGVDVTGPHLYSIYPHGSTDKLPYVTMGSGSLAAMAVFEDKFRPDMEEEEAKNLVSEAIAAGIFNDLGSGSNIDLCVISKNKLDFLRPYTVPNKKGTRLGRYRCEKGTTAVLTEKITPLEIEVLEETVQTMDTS

Sequence of Proteasome subunit beta type-6 (Homo sapiens) (P28072 whole entry, looked up): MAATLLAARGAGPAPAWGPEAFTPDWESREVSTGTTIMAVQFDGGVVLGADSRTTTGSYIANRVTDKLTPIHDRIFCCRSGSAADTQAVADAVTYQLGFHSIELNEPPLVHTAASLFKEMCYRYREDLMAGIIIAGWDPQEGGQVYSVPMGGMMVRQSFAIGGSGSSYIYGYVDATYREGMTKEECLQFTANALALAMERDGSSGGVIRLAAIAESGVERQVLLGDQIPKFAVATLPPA

Row | Structure (SMILES) | IC50 [1] [µM] | IC50 [2] [µM]
1 | C[C@H](NC(=O)N1CCC(NC(=O)c2nccs2)CC1)C(=O)N[C@@H](Cc1c[nH]c2ccccc12)C(=O)N[C@@H](Cc1ccccc1)C(=O)[C@@]1(C)CO1 | 4.36 | > 10
2 | COc1ccc(C[C@H](NC(=O)[C@@H](C)NC(=O)N2CCC(OC)CC2)C(=O)N[C@@H](Cc2ccccc2)C(=O)[C@@]2(C)CO2)cc1 | > 10 | > 10
3 | COc1ccc(C[C@H](NC(=O)[C@@H](C)NC(=O)N2CC[C@H](OC)C2)C(=O)N[C@@H](Cc2ccccc2)C(=O)[C@@]2(C)CO2)cc1 | > 10 | > 10
4 | COc1ccc(C[C@H](NC(=O)[C@@H](C)NC(=O)N2CCC[C@@H](OC)C2)C(=O)N[C@@H](Cc2ccccc2)C(=O)[C@@]2(C)CO2)cc1 | > 10 | > 10
